According to PubChem BioAssay (NCI):
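Test compounds were applied to cells in 96-well plates for 48 hours at 5 doses. TGI denotes the concentration required for complete inhibition of growth.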

What was measured:
Assay in all cases: NCI anticancer screen, dose series, 48 h
SK-OV-3 ovarian = test system: SK-OV-3 ovarian
HL-60(TB) leukemia = test system: HL-60(TB) leukemia
MDA-N = test system: MDA-N
NCI-H23 lung = test system: NCI-H23 lung
MDA-MB-435 = test system: MDA-MB-435
TK-10 renal = test system: TK-10 renal
RPMI-8226 leukemia = test system: RPMI-8226 leukemia
A498 renal = test system: A498 renal
SF-295 CNS = test system: SF-295 CNS
SK-MEL-2 melanoma = test system: SK-MEL-2 melanoma
CCRF-CEM leukemia = test system: CCRF-CEM leukemia
SK-MEL-5 melanoma = test system: SK-MEL-5 melanoma
SN12C renal = test system: SN12C renal
SF-268 CNS = test system: SF-268 CNS
MDA-MB-231 breast = test system: MDA-MB-231 breast
K-562 leukemia = test system: K-562 leukemia
NCI-H522 lung = test system: NCI-H522 lung
T-47D breast = test system: T-47D breast
UO-31 renal = test system: UO-31 renal
SW-620 colon = test system: SW-620 colon
HOP-92 NSCLC = test system: HOP-92 NSCLC
KM12 colon = test system: KM12 colon
ACHN renal = test system: ACHN renal
U251 CNS = test system: U251 CNS
RXF 393 renal = test system: RXF 393 renal
HS 578T breast = test system: HS 578T breast
OVCAR-4 ovarian = test system: OVCAR-4 ovarian
OVCAR-5 ovarian = test system: OVCAR-5 ovarian
CAKI-1 renal = test system: CAKI-1 renal
A549 NSCLC = test system: A549 NSCLC
UACC-62 melanoma = test system: UACC-62 melanoma
HCT-116 colon = test system: HCT-116 colon
SR leukemia = test system: SR leukemia
786-0 renal = test system: 786-0 renal
UACC-257 melanoma = test system: UACC-257 melanoma
COLO 205 colon = test system: COLO 205 colon
SF-539 CNS = test system: SF-539 CNS
HCT-15 colon = test system: HCT-15 colon
OVCAR-8 ovarian = test system: OVCAR-8 ovarian
BT-549 breast = test system: BT-549 breast
MOLT-4 leukemia = test system: MOLT-4 leukemia
IGROV1 ovarian = test system: IGROV1 ovarian
NCI/ADR-RES ovarian = test system: NCI/ADR-RES ovarian
SNB-75 CNS = test system: SNB-75 CNS
MCF7 breast = test system: MCF7 breast
DU-145 prostate = test system: DU-145 prostate
NCI-H226 lung = test system: NCI-H226 lung
SNB-19 CNS = test system: SNB-19 CNS
NCI-H460 lung = test system: NCI-H460 lung
M14 melanoma = test system: M14 melanoma
HT29 colon = test system: HT29 colon
OVCAR-3 ovarian = test system: OVCAR-3 ovarian
LOX IMVI melanoma = test system: LOX IMVI melanoma
EKVX NSCLC = test system: EKVX NSCLC
PC-3 prostate = test system: PC-3 prostate

Measured: TGI

COc1ccc(NC=O)c(C(=O)CCNC(C)=O)c1
> 100 µM: all assays above
